Each structure is given as a SMILES string.

The subject of one data set is precocious puberty. The experiment in a line: Taiwan Puberty Longitudinal Study cohort: sweetener intake and risk of precocious puberty (logistic regression). The class given is in vivo, human. The note with it: for OR of precocious puberty: adjusted model. The procedure:
The Taiwan Puberty Longitudinal Study (TPLS) was a multicenter project involving several hospitals in Taiwan. A total of more than 2,000 female adolescents aged from 6 to 16 years and male adolescents aged from 9 to 17 years had been recruited from pediatric endocrine clinics since 2018. Anthropometric measurements, pubertal stages exams, and interviews about physical activity and sleep quality were conducted quarterly. A comprehensive evaluation, including 24-hour food recall, fasting blood test, and parental interviews about their children's physical activity and sleep quality, was performed annually. Participants were followed up until reaching the late pubertal stages. Thorough market search, a comprehensive and semiquantitative food frequency questionnaire (FFQ), was created for glycyrrhizin intake evaluation in advance. A total of 39 glycyrrhizin-containing food and beverage products were listed in this non-nutritive sweetener food frequency questionnaire ([…])^[1]. The questionnaire was used to screen the level of glycyrrhizin consumption. The interval scale for frequency was measured as never or a number of times per day or per week. Glycyrrhizin consumption was described as the proportion relative to acceptable daily intake (ADI) set by the Joint FAO/WHO Expert Committee on Food Additives[2]. The glycyrrhizin exposure dose in % ADI was finally categorized as tertiles, ranging from T1 (0 to 0.0006), T2 (0.0006 to 0.002) to T3 (>0.002). […] Most of the added sugar came from sugar-sweetened beverages (SSB). The added-sugar exposure dose in % ADI was also categorized as tertiles, ranging from T1 (0 to 0.0013), T2 (0.0013 to 0.0044) to T3 (>0.0044). Precocious puberty (PP) was diagnosed in the presence of the following criteria: secondary sexual characteristics happen before the age of 8 years old, bone age advance greater than 2 years above chronological age, and peak luteinizing hormone (LH)≥5 after the gonadotropin-releasing hormone (GnRH) stimulation test^[3]. Body mass index (BMI) was calculated as weight in kilograms divided by height in meters squared and was then transformed into z-scores (zBMI) based on age- and sex-related reference charts for Taiwanese children^[4]. Participants were asked for their habitual activities, and the amount of time they spend for specific physical activities. The intensity of each activity was described as metabolic equivalent of task (MET)^[5]. Daily metabolic equivalent value (METD) was calculated by summarizing mean of the standard MET of each activity multiplied by the average daily duration. The sleep quality scores, ranging from 0 to 21, were assessed by the Pittsburgh Sleep Quality Index (PSQI) through a self-reported questionnaire^[6]. The total energy intake daily in kcal was estimated by the summary of energy intake from three major macronutrients, including carbohydrates, fat, and proteins. Parental education was assessed by interviews and classified as “senior high school and below,” “college,” or “graduate school and higher.” Odds ratios (ORs) for precocious puberty in participants consumed different doses of glycyrrhizin and added sugar were calculated from generalized linear models with logistic regression using glm( ) function. Models were adjusted for gender, age, zBMI, exercise time, sleep quality, total energy intake, and parental education. Atwo-tailed p-value of <0.05 was considered statistically significant. All analyses were performed using R software (version 4.0.2; RStudio; R Foundation for Statistical Computing, Inc., Boston, MA, USA).

For data set [1], the system named is female neonate Sprague-Dawley rats. The experiment in a line: Animal Experiment 1: puberty-related time points (vaginal opening, estrous cycle) in danazol-induced PP rats. In kind it is in vivo. As for the experimental part: A total of 129 female neonate Sprague-Dawley rats were housed in a humidity (67±1.5%) and temperature (24±2° C.)-controlled housing room of the Taipei Medical University's Laboratory Animal Center with a 12-hour light/dark cycle. They had free access to food and water.
(§1) Such rats were divided into Control, Danazol, MAG (monoammonium glycyrrhizinate), Danazol+Low-MAG (100 μg/kg/day), Danazol+Medium-MAG (200 μg/kg/day), and Danazol+High-MAG (400 μg/kg/day) groups. The day at birth was termed postnatal day (PND). Litters belonging to danazol-induced PP groups were given a single subcutaneous injection of 300 μg danazol (Sigma-Aldrich) dissolved in 30 μL vehicle composed of propylene glycerol and ethanol (1:1)^[7]. MAG was administered using oral gavage since PND 13. Offspring were weaned onto a normal chow diet and water at PND 21. Body weight was measured daily. The rats were examined daily for the vaginal opening, which was considered as a marker of pubertal onset.
(§2) MAG was prepared freshly at the beginning of the experiment daily by mixing MAG powder with sterilized water. The volume fed each day was calculated based on the MAG solubility (20 mg/mL), maximum volume tolerated (10 mL/kg/time), intended dose (either 100, 200, or 400 μg/kg/day), and the rat's body weight on that day. Those who were not in the MAG-fed groups were fed with the same volume of sterilized water. MAG doses were chosen based on existing guidelines for safe dosage in humans and previous work in animals. In more detail, the doses were about 5 to 20 times lower than the no-observed-adverse-effect-levels (NOAELs)^[8]. They reflect the normal physiological intake of this sweetener.
In this experiment, rats were fed with MAG daily until the end of experiment to maintain the long-term effect of drug tested. Vaginal smear was performed daily until they established three consecutive regular 4- or 5-day-cycles. The day of vaginal opening was the primary outcome. Moreover, the day of the setup of the regular cycle and the day of the establishment of 3 regular cycles were observed as secondary outcomes. The first day of diestrus or metestrus of the first cycle in the 3 consecutive regular estrous cycles was determined as the day of the setup of the regular cycle^[7]. The last day of diestrus of the last cycle in the 3 consecutive regular estrous cycles was determined as the day of establishment of 3 regular cycles^[9].
(§3) Data were presented as means±standard deviation. Statistical analysis was performed on raw data using one-way analysis of variance (ANOVA). Comparisons among groups were made using the post hoc Tukey-HSD test. Day of vaginal opening, day of setup of regular cycle and day of establishment of 3 regular cycles were analyzed using survival analysis and were compared using the log-rank test. A two-tailed p-value<0.05 was considered significant.

Data set [2] shares this test system. The experiment in a line: Animal Experiment 2: serum estrogen level on sacrifice day. The class given is in vivo. From the text: In this experiment, rats were raised until the model group (danazol) experienced vaginal opening. At that time, all of the rats were then sacrificed to (1) compare the differences between serum estrogen and luteinizing hormone (LH) levels; (2) compare the mRNA expression of GnRHa, k, Lin28a, Lin28b, let7a, let7b, GPR54, netrin-1, UNC5C, and MKRN3 in the hypothalamus using qPCR; and (3) compare the number of GnRH and kisspeptin neurons in the hypothalamus using immunohistochemistry (IHC).
(§4) Overnight fasting blood samples for glucose measurement were collected from tail veins two days before sacrifice. Blood samples for LH, estrogen, and other routine laboratory tests were collected from the abdominal aorta when sacrificing. Insulin resistance was then estimated using the triglyceride glucose (TyG) index. […] Also, the fecal samples were collected during these days to analyze gut microbiome, short chain fatty acids (SCFA), and reserve material for fecal microbiota transplantation (FMT) in Experiment 3.
Blood glucose in rodents was measured using the BioSystem glucose GOD/Peroxidase kit. LH levels were measured using the Enzo LH ELISA kit following the manufacturer's instructions. Samples for estrogen and other routine test were sent to a clinical laboratory.

In data set [3] the test system is mice (recipient) raised in a specific-pathogen free environment. The data set can be described thus: Animal Experiment 3: fecal microbiota transplantation (FMT), day of vaginal opening. The conditions noted are these: Danazol group, n = 6. In kind it is in vivo. As for the experimental part: In this experiment, the fecal material collected in Experiment 2 (from donor) was transplanted to mice (recipient) raised in a specific-pathogen free environment. Pathogen free mice model was established by feeding 25 mL of cocktail antibiotics, which contain 50 mg of ampicillin, 50 mg of neomycin, 50 mg of metronidazole, and 25 mg of vancomycin.
as §3

For data set [4], the system named is female neonate Sprague-Dawley rats. The data set can be described thus: Body weight, reproductive organ coefficient weights, routine laboratory safety tests and TyG index in rats. The class given is in vivo. As for the experimental part: as §1, §4
On the days of the vaginal opening in the model group, all animals were exsanguinated with normal saline following anesthesia. After perfusion, the hypothalamus was retrieved. Half of them were fixed in the 10% neutral-buffered formalin for IHC experiments, while the remaining half was embedded in RNAprotect reagent for qPCR experiments later. […]
Blood glucose in rodents was measured using the BioSystem glucose GOD/Peroxidase kit. LH levels were measured using the Enzo LH ELISA kit following the manufacturer's instructions. […]
Data were presented as means±standard deviation. […] Day of vaginal opening, day of setup of regular cycle and day of establishment of 3 regular cycles were analyzed using survival analysis and were compared using the log-rank test. […]

Data set [5] can be described thus: MAG solubility in sterilized water. In kind it is physicochemical. The note with it: MAG powder mixed with sterilized water. As for the experimental part:
as §2

Setting [6] is: Danazol group (single s.c. 300 μg danazol), n = 6.
The mark [7] stands for this setting: Danazol + High-MAG (400 μg/kg/day, oral gavage), n = 15.
[8] abbreviates: Danazol + Low-MAG (100 μg/kg/day, oral gavage), n = 8.
The mark [9] stands for this setting: Danazol + Med-MAG (200 μg/kg/day, oral gavage), n = 8.
Setting [10] is: MAG group (no danazol), oral gavage since PND 13, n = 5.

As to `CC1(C)[C@@H](O[C@H]2O[C@H](C(=O)O)[C@@H](O)[C@H](O)[C@H]2O[C@@H]2O[C@H](C(=O)O)[C@@H](O)[C@H](O)[C@H]2O)CC[C@]2(C)[C@H]3C(=O)C=C4[C@@H]5C[C@@](C)(C(=O)O)CC[C@]5(C)CC[C@@]4(C)[C@]3(C)CC[C@@H]12` [Glycyrrhizin, glycyrrhizin], the “OR of precocious puberty” value in the data set with precocious puberty (Female, exposure tertile T1 vs no intake) was determined as 0.479; with precocious puberty (Female, exposure tertile T2 vs no intake), 0.826; in the data set with precocious puberty (Female, exposure tertile T3 vs no intake) it was 0.969; in the data set on precocious puberty (Male, exposure tertile T1 vs no intake), 1.384; in the data set on precocious puberty (Male, exposure tertile T2 vs no intake), 0.422; in the data set on precocious puberty (Male, exposure tertile T3 vs no intake), 0.656. The “OR of precocious puberty” value amounted to 0.607 with precocious puberty (Total, exposure tertile T1 (% ADI: glycyrrhizin 0 to 0.0006, added sugar 0 to 0.0013) vs no intake); 0.687 in the data set on precocious puberty (Total, exposure tertile T2 (% ADI: glycyrrhizin 0.0006 to 0.002, added sugar 0.0013 to 0.0044) vs no intake); 0.857 in the data set on precocious puberty (Total, exposure tertile T3 (% ADI: glycyrrhizin >0.002, added sugar >0.0044) vs no intake). The “Risk of PP after full adjustment” value with precocious puberty (human cohort, consumption vs no intake) is “reduce the risk of PP”.

Regarding `C#C[C@]1(O)CC[C@H]2[C@@H]3CCC4=Cc5oncc5C[C@]4(C)[C@H]3CC[C@@]21C` [Danazol, danazol, reference compound], in data set [1] (setting [6]), the “Day of establishment of 3 regular cycles” value amounted to 38.17 ± 1.17, the “Day of setup of regular cycle” value stood at 27.67 ± 1.51 and the “Day of vaginal opening” value worked out at 23.00 ± 0.00. Besides, in data set [2] (Danazol group), the Serum estrogen level entry is “trend towards higher values”. In addition, in data set [3], the “Day of vaginal opening (PND)” value is 24.33 PND.

In the case of `CC1(C)[C@@H](O[C@H]2O[C@H](C(=O)O)[C@@H](O)[C@H](O)[C@H]2O[C@@H]2O[C@H](C(=O)O)[C@@H](O)[C@H](O)[C@H]2O)CC[C@]2(C)[C@H]3C(=O)C=C4[C@@H]5C[C@@](C)(C(=O)O)CC[C@]5(C)CC[C@@]4(C)[C@]3(C)CC[C@@H]12.N` [MAG, monoammonium glycyrrhizinate], the “Day of establishment of 3 regular cycles” value in data set [1] (setting [7]) amounted to 41.47 ± 2.85; in data set [1] (setting [8]), 44.13 ± 3.68; in data set [1] (setting [9]), 45.88 ± 4.19; in data set [1] (setting [10]) it was 49.00 ± 2.55. The “Day of setup of regular cycle” value in data set [1] (setting [7]) is 28.93 ± 3.62; in data set [1] (setting [8]), 31.50 ± 3.63; in data set [1] (setting [9]) it was 33.38 ± 4.07; in data set [1] (setting [10]), 37.40 ± 3.44. Besides, the “Day of vaginal opening” value in data set [1] (setting [7]) is 24.00 ± 2.45; in data set [1] (setting [8]), 25.13 ± 3.60; in data set [1] (setting [9]) it was 27.50 ± 5.01; in data set [1] (setting [10]), 32.60 ± 2.07. Further, the “Protection against PP over the whole estrous cycle” value in data set [1] (danazol-induced PP rats, most obvious effects with Low- and Medium-MAG groups) is “protected rats against PP following a dose-dependent manner”. For the same molecule, in data set [4] (all p>0.05), the “Liver enzyme, renal function, albumin, electrolyte panel and lipid profiles” value is on record as “no safety concerns”. The “Body weight during puberty” value in data set [4] (among groups, p=0.448) is reported as “no difference”. Besides, in data set [4] (between groups, High-MAG vs Medium-MAG p=0.048), the “Insulin resistance (TyG index) at the end of the experiment” value is “did not differ between groups, with the exception of a higher value in High-MAG than that of Medium-MAG”. In addition, in data set [2] (High-MAG group (danazol + 400 μg/kg/day)), the Serum estrogen level result was “trend towards higher values”. In addition, the MAG solubility in data set [5] was determined as 20 mg/mL.

The values are drawn from patent US20240350521A1, “COMPOSITIONS AND METHODS FOR PREVENTING OR TREATING PRECOCIOUS PUBERTY” (TAIPEI MEDICAL UNIVERSITY, priority 2023, published 2024).
